Literature values in patent US20140284468A1, “Cancer patient selection for administration of therapeutic agents using mass spectral analysis of blood-based samples” (Biodesix, Inc., priority 2010, published 2014).

Test system: NSCLC, SCCHN, and CRC patients
Details: VeriStrat poor subgroup, monotherapy versus placebo

C#Cc1cccc(Nc2ncnc3cc(OCCOC)c(OCCOC)cc23)c1 [erlotinib]
treatment benefit: essentially equivalent to treatment with placebo
